These results are taken from PubChem BioAssay AID1996.

The structures appear in SMILES notation. Values after ≈ are worked out from the molar mass of the structure shown. Some results are limits rather than exact numbers.

For this data set the following is noted: buffer; pH 7.4; 200.0 µM.
With `O=C(COC(=O)c1cc(Cl)nc(Cl)c1)NCCc1ccc(F)cc1`, the solubility (kinetic) (in general, the concentration staying in solution when a stock, usually in DMSO, is diluted into the medium) was above 55.7 µg/mL.

On to `CC1(C)CC2(CCO1)C(Nc1ccccc1)=NC(=S)N2c1ccccc1` (configuration not stated), for which the solubility (kinetic) was below 0.3 µg/mL.

`CN(CC(=O)Nc1ccc(F)c(F)c1F)C(=O)C1=COCCO1` showed a kinetic solubility above 49.5 µg/mL. The compound `CCCc1cnc(N2CCN(C(=O)c3ccccc3)CC2)nc1` showed a kinetic solubility above 46.6 µg/mL.

The compound `CC(C)(C)CC(=O)NCCCN1CCOCC1` came in with a kinetic solubility above 36.4 µg/mL. In turn, `CC(NC(=O)CN1CCN(c2ccccc2F)CC1)c1ccccc1` (configuration not stated) yielded a kinetic solubility of 46.3 µg/mL (≈ 136 µM).

`Nc1c(C(=O)N2CCCCC2)sc2nc3c(cc12)CCCC3` gave a kinetic solubility of 41.7 µg/mL (≈ 132 µM). The compound `Cc1ccc(C(=O)N2CCC(C(=O)NCc3ccco3)CC2)cc1` registered a kinetic solubility above 49 µg/mL.

Compound `O=C(NCCc1ccc(F)cc1)NC12CC3CC(CC(C3)C1)C2` showed a solubility (kinetic) of 6.5 µg/mL (≈ 20.5 µM). On to `COc1cc([N+](=O)[O-])ccc1N1C(=O)CC(Sc2nccc(C)n2)C1=O` (configuration not stated), for which the solubility (kinetic) was above 56.2 µg/mL. Regarding `COC(=O)c1cccc(NC(=O)Nc2ccc(Cl)cc2Cl)c1`, the kinetic solubility was below 0.4 µg/mL.

For the compound `O=C(Nc1nc2ccsc2c(=O)s1)C1CCC1`, the solubility (kinetic) was found to be 8.1 µg/mL (≈ 30.4 µM). In turn, `Cc1nc(N2CCN(c3ccc(Cl)cc3)CC2)[nH]c(=O)c1C` showed a solubility (kinetic) of 1.6 µg/mL (≈ 5.02 µM). The compound `CCOC(=O)/C(C#N)=C/C=C1/C=CC=CN1C` returned a solubility (kinetic) above 34.5 µg/mL. In turn, `O=C(COC(=O)C1CC1)Nc1ccc(Cl)cc1Cl` showed a kinetic solubility of 41.9 µg/mL (≈ 145 µM). Compound `COc1ccc(NC(=O)CN2CCc3ccccc3C2)c(OC)c1` displayed a solubility (kinetic) of 34.1 µg/mL (≈ 104 µM). The same measure for `COc1ccc(/C=N/OCc2ccccc2C#N)c(OC)c1`: 0.4 µg/mL (≈ 1.35 µM). In turn, `Cc1cccc(NC(=O)NC2CCCc3ccccc32)c1` (configuration not stated) registered a solubility (kinetic) of 0.7 µg/mL (≈ 2.5 µM).

Regarding `O=[N+]([O-])c1cccc(-c2nc(-c3ccccn3)no2)c1`, the solubility (kinetic) is 6.4 µg/mL (≈ 23.9 µM).

On to `O=C(/C=C/c1cccc(Cl)c1)NCCCN1CCOCC1`, for which the solubility (kinetic) is above 46.3 µg/mL. In the case of `Nc1cc(S(=O)(=O)N2CCOCC2)ccc1N1CCCCC1`, the solubility (kinetic) was 42.2 µg/mL (≈ 130 µM). The same measure for `NCCS(=O)(=O)O`: 1.2 µg/mL (≈ 9.59 µM). In turn, `Cc1nn(CC(=O)NC2CCC(C)CC2)c(=O)c(C#N)c1C` (configuration not stated) yielded a kinetic solubility above 45.4 µg/mL.

In turn, `Cc1ccc(C)c(NC(=O)CSc2c(C)n[nH]c2C)c1` yielded a kinetic solubility above 43.4 µg/mL. Compound `O=[N+]([O-])c1cnc(Nc2ccc(Cl)cn2)c([N+](=O)[O-])c1` yielded a kinetic solubility of 1.8 µg/mL (≈ 6.09 µM). To `O=C(N[C@@H](Cc1c[nH]c2ccccc12)C(=O)O)c1ccc(Cl)cc1` belongs above 51.4 µg/mL. To `Oc1ccc(-c2nccc(-c3ccc(F)cc3)n2)cc1` belongs 2.1 µg/mL (≈ 7.89 µM); to `CN(C)S(=O)(=O)c1cccc(NC(=O)c2ccc(NS(=O)(=O)c3cccs3)cc2)c1`, 59.5 µg/mL (≈ 128 µM); to `COc1cc2c(cc1OC)C(c1ccc([N+](=O)[O-])cc1)NC(=O)C2` (configuration not stated), 45.6 µg/mL (≈ 139 µM). In turn, `COC(=O)c1ccc(C[n+]2ccccc2)cc1.[Br-]` gave a solubility (kinetic) above 46.2 µg/mL. `CCOC(=O)c1nc2ccccc2c(=O)[nH]1` gave a kinetic solubility above 32.7 µg/mL.

Take `Cc1ccc(S(=O)(=O)N2CC(O)CC2C(=O)O)cc1` (configuration not stated): the solubility (kinetic) was above 42.8 µg/mL. In the case of `COc1ccc(-n2cc([N+](=O)[O-])c(=O)c3ccc(Cl)cc32)cc1`, the solubility (kinetic) was determined as 0.7 µg/mL (≈ 2.12 µM). `COCCNC(=O)/C(C#N)=C/c1ccc(OCc2ccc(F)cc2)cc1` had a solubility (kinetic) of 3.4 µg/mL (≈ 9.59 µM). The same measure for `COc1ccc(C)c2sc(=NC(=O)c3cccc(N4C(=O)CCC4=O)c3)n(C)c12`: below 0.3 µg/mL; for `Cc1ccccc1SCC(=O)NCCCn1ccnc1`: 42.9 µg/mL (≈ 148 µM); for `CCOc1ccc(NC(=O)N[C@@H](Cc2ccccc2)C(=O)O)cc1`: above 49.3 µg/mL. For the compound `C=CCn1c(O)c(C=Nc2ccc(F)cc2)c(=O)[nH]c1=O`, the solubility (kinetic) stood at 19.3 µg/mL (≈ 66.7 µM).

The compound `O=C(c1ccccc1)C1NC1c1ccccc1` (configuration not stated) showed a kinetic solubility of 26.9 µg/mL (≈ 120 µM).

`O=C(COC(=O)C1=COCCO1)Nc1ccc(Br)cc1Br` yielded a solubility (kinetic) of 6.6 µg/mL (≈ 15.7 µM). The compound `Cc1ccc(OCCNC(=O)c2ccc3ccccc3n2)cc1` yielded a kinetic solubility of 5.4 µg/mL (≈ 17.6 µM). `N/C(=N\OC(=O)/C=C/c1ccccc1Cl)c1ccncc1` had a kinetic solubility of 28.2 µg/mL (≈ 93.5 µM).

`CC1(c2ccccc2Cl)NC(=O)N(CC(=O)N2CCc3ccccc32)C1=O` (configuration not stated) yielded a kinetic solubility of 10.1 µg/mL (≈ 26.3 µM). As to `O=C(NCCc1c[nH]c2ccccc12)c1ccc(Br)o1`, the solubility (kinetic) stood at 45.7 µg/mL (≈ 137 µM). Regarding `Cc1cnc(=O)[nH]c1SCc1cccc([N+](=O)[O-])c1`, the kinetic solubility was found to be 5.6 µg/mL (≈ 20.2 µM). For `N#Cc1cccc(S(=O)(=O)NCCOc2ccccc2F)c1`, the solubility (kinetic) was above 48.1 µg/mL.

As for `O=C(CNC(=O)c1ccc(Br)o1)NC12CC3CC(CC(C3)C1)C2`, the kinetic solubility is 50.5 µg/mL (≈ 132 µM). Turning to `CCN(CC)c1ccc(CNCCc2ccc(F)cc2)cc1.Cl`, the solubility (kinetic) is above 50.5 µg/mL. `O=C1C2C3C=CC(CC3)C2C(=O)N1c1ccccc1[N+](=O)[O-]` (configuration not stated): the solubility (kinetic) was 14.5 µg/mL (≈ 48.6 µM).

`COc1ccc(C(=O)OCC(=O)NC2CCCC2)c(OC)c1OC` registered a kinetic solubility above 50.6 µg/mL. To `COc1cc(OC)cc(C(=O)NCc2ccc3[nH]c(C)cc3c2)c1` belongs 3.3 µg/mL (≈ 10.2 µM); to `Cc1c(N2CCCC2)cc2c(c1N)C(C)(C)CC2(C)C`, 19.2 µg/mL (≈ 70.5 µM).
